Test results as given in the supplement of paper PMC10307832.

Tests used:
Test in all cases: relative viability (nuclei count vs DMSO), 5 days (fraction); higher = more cells survive
[1] = compound: CN(C)C[C@@H]1CCn2cc(c3ccccc32)C2=C(C(=O)NC2=O)c2cn(c3ccccc23)CCO1 [Ruboxistaurin] + C[C@]1(O)C[C@@H](c2nc(-c3ccc4ccc(-c5ccccc5)nc4c3)c3c(N)nccn32)C1 [Linsitinib] (partner 1 µM)
Method in brief: (§1)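 Dosing by pin tool came one day after lung cancer cell lines were seeded in 1536-well plates, using either one drug or a fixed anchor-drug dose plus five library-drug doses (not always all listed) in √10 steps. After 5 days, nuclei were counted on 4× images. Relative viability is treated-well nuclei count divided by vehicle-well nuclei count, and values are medians of duplicate plates.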

[2] = compound: CN(C)C[C@@H]1CCn2cc(c3ccccc32)C2=C(C(=O)NC2=O)c2cn(c3ccccc23)CCO1 [Ruboxistaurin] + Cc1cc(Nc2cc(N3CCN(C)CC3)nc(Sc3ccc(NC(=O)C4CC4)cc3)n2)n[nH]1 [Tozasertib] (partner 0.1 µM)
Method in brief: as §1

[3] = compound: CN(C)C[C@@H]1CCn2cc(c3ccccc32)C2=C(C(=O)NC2=O)c2cn(c3ccccc23)CCO1 [Ruboxistaurin] + Cc1nc(Nc2ncc(C(=O)Nc3c(C)cccc3Cl)s2)cc(N2CCN(CCO)CC2)n1 [Dasatinib] (partner 0.075 µM)
Method in brief: as §1

[4] = compound: CN(C)C[C@@H]1CCn2cc(c3ccccc32)C2=C(C(=O)NC2=O)c2cn(c3ccccc23)CCO1 [Ruboxistaurin] + O=C(CCCCCCC(=O)Nc1ccccc1)NO [Vorinostat] (partner 1 µM)
Method in brief: as §1

Ruboxistaurin + Olaparib = compound: CN(C)C[C@@H]1CCn2cc(c3ccccc32)C2=C(C(=O)NC2=O)c2cn(c3ccccc23)CCO1 [Ruboxistaurin] + O=C(c1cc(Cc2n[nH]c(=O)c3ccccc23)ccc1F)N1CCN(C(=O)C2CC2)CC1 [Olaparib] (partner 8 µM)
Method in brief: as §1

| Cell Line | relative viability ([1]; first compound 0.08 µM) | relative viability ([1]; first compound 0.8 µM) | relative viability ([1]; first compound 2.53 µM) | relative viability ([1]; first compound 8 µM) | relative viability ([2]; first compound 0.08 µM) | relative viability ([2]; first compound 0.8 µM) | relative viability ([2]; first compound 2.53 µM) | relative viability ([2]; first compound 8 µM) | relative viability ([3]; first compound 0.08 µM) | relative viability ([3]; first compound 0.8 µM) | relative viability ([3]; first compound 2.53 µM) | relative viability ([3]; first compound 8 µM) | relative viability ([4]; first compound 0.08 µM) | relative viability ([4]; first compound 0.8 µM) | relative viability ([4]; first compound 2.53 µM) | relative viability ([4]; first compound 8 µM) | relative viability (Ruboxistaurin + Olaparib; first compound 0.08 µM) | relative viability (Ruboxistaurin + Olaparib; first compound 0.8 µM) | relative viability (Ruboxistaurin + Olaparib; first compound 2.53 µM) | relative viability (Ruboxistaurin + Olaparib; first compound 8 µM) |
| --- | --- | --- | --- | --- | --- | --- | --- | --- | --- | --- | --- | --- | --- | --- | --- | --- | --- | --- | --- | --- |
| 201T | 1.03 | 0.874 | 1.06 | 0.891 | 0.993 | 0.815 | 0.976 | 0.825 | 0.572 | 0.536 | 0.603 | 0.559 | 1 | 0.961 | 1.05 | 1.03 | 0.821 | 0.837 | 0.852 | 0.909 |
| A549 | 0.685 | 0.562 | 0.61 | 0.458 |  |  |  |  |  |  |  |  |  |  |  |  | 0.27 | 0.273 | 0.415 | 0.381 |
| A-427 | 1.1 | 1.08 | 0.992 | 0.925 | 0.19 | 0.184 | 0.232 | 0.157 | 0.677 | 0.639 | 0.675 | 0.374 | 0.826 | 0.824 | 0.872 | 0.838 | 0.728 | 0.672 | 0.558 | 0.534 |
| ABC-1 | 0.767 | 0.865 | 0.969 | 0.625 | 0.178 | 0.163 | 0.184 | 0.22 | 0.638 | 0.56 | 0.633 | 0.465 | 1.22 | 1.11 | 1.27 | 1.07 | 1.27 | 0.81 | 1.03 | 1.15 |
| BEN | 1.04 | 0.883 | 0.9 | 0.721 | 0.492 | 0.45 | 0.498 | 0.483 | 0.316 | 0.297 | 0.307 | 0.298 | 0.608 | 0.544 | 0.6 | 0.585 | 1.31 | 0.903 | 1.34 | 0.888 |
| CAL-12T | 0.884 | 0.679 | 0.897 | 0.927 | 0.371 | 0.292 | 0.301 | 0.211 | 0.339 | 0.324 | 0.301 | 0.28 | 0.937 | 0.473 | 0.744 | 0.941 | 0.749 | 0.704 | 0.901 | 0.751 |
| COR-L23 | 0.928 | 0.815 | 1.03 | 0.851 | 0.221 | 0.167 | 0.202 | 0.153 | 0.489 | 0.399 | 0.549 | 0.602 | 0.61 | 0.442 | 0.522 | 0.501 | 0.409 | 0.377 | 0.387 | 0.326 |
| COR-L 105 | 1.17 | 0.75 | 0.78 | 0.696 | 0.385 | 0.367 | 0.304 | 0.254 | 0.352 | 0.236 | 0.362 | 0.262 | 0.96 | 0.925 | 0.842 | 0.816 | 0.802 | 0.597 | 0.707 | 0.677 |
| ChaGo-K-1 |  |  |  |  | 0.225 | 0.242 | 0.231 | 0.211 | 0.564 | 0.611 | 0.636 | 0.478 | 0.795 | 0.712 | 0.875 | 0.853 | 0.431 | 0.39 | 0.433 | 0.444 |
| EKVX | 1.08 | 0.948 | 0.971 | 0.931 | 0.411 | 0.401 | 0.415 | 0.367 | 0.641 | 0.476 | 0.551 | 0.579 | 0.841 | 0.65 | 0.714 | 0.75 | 0.923 | 0.692 | 0.929 | 0.861 |
| HCC-44 | 0.643 | 0.645 | 0.674 | 0.635 | 1.05 | 0.919 | 1.1 | 1.09 |  |  |  |  | 1.04 | 1.04 | 1.1 | 1.23 | 0.978 | 0.942 | 0.983 | 1.04 |
| NCI-H522 |  |  |  |  | 0.502 | 0.502 | 0.563 | 0.524 | 0.835 | 0.83 | 0.953 | 0.719 | 1.01 | 0.9 | 1.05 | 0.931 | 0.71 | 0.676 | 0.637 | 0.728 |
| NCI-H1650 |  |  |  |  | 0.435 | 0.301 | 0.433 | 0.3 | 0.418 | 0.273 | 0.331 | 0.254 | 0.676 | 0.554 | 0.685 | 0.569 | 0.854 | 0.709 | 0.907 | 0.981 |
| NCI-H1703 | 0.756 | 0.464 | 0.957 | 0.82 |  |  |  |  |  |  |  |  |  |  |  |  | 0.447 | 0.411 | 0.622 | 0.305 |
| NCI-H1792 | 0.536 | 0.449 | 0.506 | 0.487 |  |  |  |  | 0.829 | 0.667 | 0.77 | 0.781 |  |  |  |  | 0.517 | 0.453 | 0.287 | 0.414 |
| NCI-H2170 |  |  |  |  | 0.719 | 0.737 | 0.686 | 0.745 | 0.592 | 0.61 | 0.489 | 0.519 | 0.856 | 0.775 | 0.854 | 0.855 | 0.659 | 0.499 | 0.588 | 0.534 |
| NCI-H2342 |  |  |  |  | 0.578 | 0.56 | 0.461 | 0.497 | 0.364 | 0.312 | 0.303 | 0.277 | 0.888 | 0.69 | 0.768 | 0.93 | 0.414 | 0.483 | 0.511 | 0.436 |
